Experimental data taken from patent publication US10253251B2, “Nanomatrix separation of chromophores and uses thereof in luminescent devices” (RAMOT AT TEL-AVIV UNIVERSITY LTD., priority 2010, dated 2019).
Several values for one entry are separate records, joined by “and”; a condition that tells them apart may be missing. Equal entries are not always repeated.

Columns and labels:
[1] = Binding/dissolution of hydrophobic ligands by oligosaccharide: arabic acid; settings: dissolved ligand divided by amount of oligosaccharide
Description: (§1) The subsequent series of complementary experiments was designed to examine capabilities of different size oligosaccharides to bind selected hydrophobic ligands.
(§2) Representative oligosaccharides, including β-cyclodextrin, starch, arabic acid and lactose, were incubated with C60, according to the described above protocol for the BSM complexes preparation. […] Therefore, it is believed that interactions between the saccharide residues and the polypeptide backbone in a sugar-substituted polypeptide dictate certain arrangements of the saccharide moieties in space, and these arrangements play a role in the complexation of various hydrophobic materials.
(§3) The subsequent series of complementary experiments was designed to examine capabilities of different size oligosaccharides to bind selected hydrophobic ligands. Representative oligosaccharides, including β-cyclodextrin, starch, arabic acid and lactose, were incubated with Ant, Bap and Cor ligands, according to the described above protocol for the BSM complexes preparation. The LUP values were calculated by dividing the amount of the dissolved ligand by the amount of the oligosaccharide present in the complex (if formed). No clear preference was for binding of particular ligands to certain oligosaccharides. In comparison to BSM, the dissolution capability of arabic acid was drastically lower for all tested ligands. It was practically negligible in the cases of lactose, β-cyclodextrin and starch (Table 1).

[2] = test system: deglycosylated form of BSM (dBSM); assay: Loading capacity of deglycosylated BSM (dBSM) for hydrophobic ligands; format: binding, bovine; settings: for dBSM NBL (number of bound ligands per dBSM monomer) / dBSM UP (%): deglycosylated BSM
Description: To evaluate this assumption, a deglycosylated form of BSM (dBSM) was prepared and repeated binding experiments with this modified protein were carried out. Complexes of C60 with dBSM were prepared as described above for the complexation with BSM.
dBSM was prepared by base-catalyzed β-elimination of periodate-oxidized glycans, using method reported by Kim and coworkers.
A deglycosylated form of BSM (dBSM) was prepared and the binding experiments with this protein were repeated. Complexes of Ant, Bap and Cor ligands with dBSM were prepared as described above for the complexation with BSM. dBSM was prepared as described above in the context of fullerene, nanotubes, and inorganic nanostructures.
A solution of BSM protein (100 mg) in NaOH (0.1 M, 10 mL) was stirred at room temperature for 30 min. The resulting solution was cooled to 4° C. NaIO4 (100 mM) in acetate buffer (100 mM, pH 4.5) was added and the mixture was stirred overnight at 4° C. After that time, glycine (200 mg) was added and the reaction mixture was allowed to warm to room temperature and was stirred for 30 min. NaOH (1.0 M, 1 mL) was added and the solution was stirred for an additional 30 min. The resulting solution was dialyzed against deionized water overnight and was then centrifuged and lyophilized. The degree of deglycosylation was measured by using a standard periodic acid/Schiff assay (Sigma-Aldrich).
(§4) To a solution of BSM or deglycosylated BSM protein (4 mg mL^−1, 1.5 mL) in sodium phosphate buffer (2 mM, pH 7.2) a solid ligand (1 mg) was added at room temperature and the mixture was stirred at 500-700 rpm for 48 hrs. After that time, the reaction mixture was filtered through a 0.45 μm filter and the solution was loaded on a Sephadex G-25 gel-permeation column (Pharmacia Biotech). Protein complexes were eluted with a sodium phosphate buffer (20 mM, pH 7.2) and elution was monitored by UV-vis spectroscopy.
(§5) The amount of BSM or deglycosylated BSM protein in complexes was determined by using a standard periodic acid/Schiff assay (Sigma-Aldrich). The amount of a ligand in each complex was determined by UV-vis spectroscopy after protein hydrolysis and quantitative extraction of the ligand by chloroform. To a sample of complex in a sodium phosphate buffer (1 mL, 20 mM, pH 7.2), chloroform (1 mL) and hydrochloric acid (1 mL, 12 M) were added at room temperature. The reaction mixture was sealed in a glass pressure vessel and heated at 80° C. with vigorous stirring for 3 hrs. After cooling to a room temperature, the organic phase containing extracted ligand was analyzed by UV-vis spectroscopy.

[3] = test system: Bovine Submaxillary Mucin (BSM); assay: Loading capacity of BSM glycoprotein for hydrophobic ligands (ligand uptake); format: binding; settings: for BSM NBL (average number of bound ligands per BSM monomer): LUP multiplied by BSM monomer-to-ligand molecular weight ratio; for BSM LUP (ligand uptake percentage, ligand-to-BSM weight ratio): extracted ligand (hydrolysis-extraction, UV-vis) divided by BSM protein (PAS assay)
Text: In order to determine the loading capacity of BSM glycoprotein for the examined ligands, elemental analysis measurements were preformed. The carbon content of each complex (in the case of C60 and MWNT containing complexes) was compared to the carbon content found in the native BSM. This was used to determine the amount of ligand in the complex and by that, the mucin-ligand weight ratio (ligand uptake percentage—LUP, Table 1).
In this procedure, the amount of the BSM protein in the mucin complex was analyzed by a periodic acid/Schiff (PAS) assay.
In more detail, in order to determine the amount of C60, a hydrolysis-extraction process was used which included heating of the complex in a heterogeneous mixture of hydrochloric acid and chloroform at 80° C., in a sealed vessel, and then the amount of a chloroform-extracted ligand was determined by UV-vis spectroscopy.
Additional calculation determined the average number of bound ligand (NBL) per BSM monomer by multiplication of the LUP value by the BSM monomer-to-ligand molecular weight ratio (Eq. 2).
In order to ascertain the capacity of BSM glycoprotein for various ligands, the amounts of Ant, Bap and Cor ligands in corresponding BSM complexes were determined. The amount of the BSM protein in each BSM complex was analyzed by a periodic acid/Schiff (PAS) assay.
In order to determine the amount of ligand in each complex, the above-described hydrolysis-extraction process was employed and determined the amount of chloroform-extracted ligand by UV-vis spectroscopy.
The LUP values were calculated by dividing the amount of the extracted ligand by the amount of the BSM protein present in the complex. […] The average number of bound ligands (NBL) per BSM monomer was also calculated by multiplication of the LUP value by the BSM monomer-to-ligand molecular weight ratio, as discussed above.
as §4, §5

[4] = Binding/dissolution of hydrophobic ligands by oligosaccharide: starch; settings: dissolved ligand divided by amount of oligosaccharide
Description: as §1, §2, §3

[5] = Binding/dissolution of hydrophobic ligands by oligosaccharide: β-cyclodextrin; settings: dissolved ligand divided by amount of oligosaccharide
Description: as §1, §2
as §3, with “It was practically negligible in the cases of lactose, β-cyclodextrin and starch (Table 1).” left out

[6] = Incubation of representative oligosaccharides with C60, detection in solution by UV-vis or SEC-HPLC; format: physicochemical; settings: β-cyclodextrin, starch, arabic acid and lactose
Description: as §1, §2

Structure (SMILES)	Arabic Acid LUP [1] [%]	dBSM NBL (number of bound ligands per dBSM monomer) [2]	dBSM UP (%) [2]	BSM NBL (average number of bound ligands per BSM monomer) [3]	BSM LUP (ligand uptake percentage, ligand-to-BSM weight ratio) [3]	Starch LUP [4] [%]	BSM LUP (ligand uptake percentage, ligand-to-BSM weight ratio) ([3]; listed as Coronene) [%]	β-Cyclodextrin LUP [5] [%]	C60 detected in the solution after incubation with oligosaccharides [6]	uptake capacity of dBSM, ligands per monomer [2]	average number of bound ligand (NBL) per BSM monomer [3]
c1ccc2cc3ccccc3cc2c1 [Ant, anthracene]	0.56 ± 0.11	2.2 ± 0.3	0.28 ± 0.06%	43 ± 9	4.5% and 4.5 ± 0.9%						
c1ccc2c(c1)cc1ccc3cccc4ccc2c1c34 [Bap, benzo[a]pyrene]	0.09 ± 0.02	1.2 ± 0.2	0.23 ± 0.05%	36 ± 8	5.4 ± 1.1%	0.11 ± 0.02					
c1cc2ccc3ccc4ccc5ccc6ccc1c1c2c3c4c5c61 [Cor, coronene]	0.18 ± 0.04	2.1 ± 0.2	0.61 ± 0.12%	44 ± 9	7.8 ± 1.5%	0.18 ± 0.04	7.7				
c12c3c4c5c1c1c6c7c2c2c8c3c3c9c4c4c%10c5c5c1c1c6c6c%11c7c2c2c7c8c3c3c8c9c4c4c9c%10c5c5c1c1c6c6c%11c2c2c7c3c3c8c4c4c9c5c1c1c6c2c3c41 [Ligand C60, C60]		1.9 ± 0.1	1.4% and 1.41 ± 0.28%	36 ± 6	15.1% and 15.1 ± 2.4%	0.35 ± 0.07		0.12 ± 0.02	no C60 was detected	2 ligand molecules per monomeric unit	40 ligands per monomeric unit of BSM
